From patent publication US6525001B1, “Substituted pyrimidine and pyridine herbicides” (Mid-American Commercialization Corporation, priority 1997, dated 2003)

Tests used:
Assay type in all cases: in vivo
Design in all cases: key: 0 is no effect; 10 is complete control
[1] = test system: bedstraw (Galium aparine); assay: Test B pre-/postemergence; conditions: for Bedstraw plant response rating: Preemergence
Method in brief: (§1)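 Scored visually 0 (none) to 10 (complete control) against untreated plants after twelve to sixteen greenhouse days. Test chemicals, formulated in surfactant-containing non-phytotoxic solvent, applied to soil after planting and, separately, onto 1- to 4-leaf (2–18 cm) plants.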

[2] = test system: blackgrass (Alopecurus myosuroides); assay: Test B pre-/postemergence; conditions: for Blackgrass plant response rating: Preemergence
Method in brief: as §1

[3] = test system: broadleaf signalgrass (Brachiaria decumbens); assay: Test B pre-/postemergence; conditions: for B. signalgrass plant response rating: Preemergence
Method in brief: as §1

[4] = test system: cocklebur (Xanthium strumarium); assay: Test B pre-/postemergence; conditions: for Cocklebur plant response rating: Preemergence
Method in brief: as §1

corn (Zea mays) = assay: Test B pre-/postemergence; conditions: for Corn plant response rating: Preemergence
Method in brief: as §1

[5] = test system: crabgrass (Digitaria sanguinalis); assay: Test B pre-/postemergence; conditions: for Crabgrass plant response rating: Preemergence
Method in brief: as §1

[6] = test system: giant foxtail (Setaria faberii); assay: Test B pre-/postemergence
Method in brief: as §1

[7] = test system: momingglory (Ipomoea hederacea); assay: Test B pre-/postemergence
Method in brief: as §1

[8] = test system: pigweed (Amaranthus retroflexus); assay: Test B pre-/postemergence
Method in brief: as §1

[9] = test system: purple nutsedge (Cyperus rotundus); assay: Test B pre-/postemergence
Method in brief: as §1

rape (Brassica napus) = assay: Test B pre-/postemergence
Method in brief: as §1

soybean (Glycine max) = assay: Test B pre-/postemergence
Method in brief: as §1

[10] = test system: sugar beet (Beta vulgaris); assay: Test B pre-/postemergence
Method in brief: as §1

[11] = test system: velvetleaf (Abutilon theophrasti); assay: Test B pre-/postemergence
Method in brief: as §1

[12] = test system: wheat (Triticum aestivum); assay: Test B pre-/postemergence
Method in brief: as §1

wild oat (Avena fatua) = assay: Test B pre-/postemergence
Method in brief: as §1

[13] = test system: bamyardgrass (Echinochloa crus-galli); assay: Test B flood test
Method in brief: (§2)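 Flood test on plants grown to the 2-leaf stage; treated plants kept in greenhouse twelve to sixteen days, then visually rated against controls on a 0 (no effect) to 10 (complete control) scale.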

[14] = test system: duck salad (Heteranthera limosa); assay: Test B flood test
Method in brief: as §2

rice (Oryza sativa) = assay: Test B flood test
Method in brief: as §2

[15] = test system: smallflower flatsedge (Cyperus difformis); assay: Test B flood test
Method in brief: as §2

[16] = Rate 250 g/ha, Postemergence (so in the source)
[17] = Rate 62 g/ha, Postemergence (flood test)
[18] = Rate 125 g/ha, Postemergence, flood test
[19] = Rate 250 g/ha, Postemergence (flood test species)
[20] = Rate 125 g/ha, Postemergence section (flood test species)

Cc1cnc(-c2ccc(Cl)cc2F)nc1Cc1cccc(C#N)c1 [Compound 35]
Plant response rating, Bedstraw ([1]; Rate 62 g/ha, Postemergence): 6 | Bedstraw plant response rating ([1]; Rate 62 g/ha): 0 | Plant response rating, Bedstraw ([1]; Rate 125 g/ha, Postemergence): 6 | Bedstraw plant response rating ([1]; Rate 125 g/ha): 0 | Plant response rating, Bedstraw ([1]; Rate 250 g/ha, Postemergence): 8 | Plant response rating, Bedstraw [1, 16]: 1 | Plant response rating, Blackgrass ([2]; Rate 62 g/ha, Postemergence): 1 | Blackgrass plant response rating ([2]; Rate 62 g/ha): 0 | Plant response rating, Blackgrass ([2]; Rate 125 g/ha, Postemergence): 1 | Blackgrass plant response rating ([2]; Rate 125 g/ha): 0 | Plant response rating, Blackgrass ([2]; Rate 250 g/ha, Postemergence): 1 | Plant response rating, Blackgrass [2, 16]: 0 | Plant response rating, B. signalgrass ([3]; Rate 62 g/ha, Postemergence): 1 | B. signalgrass plant response rating ([3]; Rate 62 g/ha): 0 | Plant response rating, B. signalgrass ([3]; Rate 125 g/ha, Postemergence): 1 | B. signalgrass plant response rating ([3]; Rate 125 g/ha): 0 | Plant response rating, B. signalgrass ([3]; Rate 250 g/ha, Postemergence): 1 | Plant response rating, B. signalgrass ([3]; Rate 250 g/ha, Postemergence as printed in head r139 (second section for compounds 26-50)): 0 | Plant response rating, Cocklebur ([4]; Rate 62 g/ha, Postemergence): 2 | Cocklebur plant response rating ([4]; Rate 62 g/ha): 0 | Plant response rating, Cocklebur ([4]; Rate 125 g/ha, Postemergence): 2 | Cocklebur plant response rating ([4]; Rate 125 g/ha): 0 | Plant response rating, Cocklebur ([4]; Rate 250 g/ha, Postemergence): 2 | Plant response rating, Cocklebur [4, 16]: 0 | Plant response rating, Corn (corn (Zea mays); Rate 62 g/ha, Postemergence): 1 | Corn plant response rating (corn (Zea mays); Rate 62 g/ha): 0 | Plant response rating, Corn (corn (Zea mays); Rate 125 g/ha, Postemergence): 1 | Corn plant response rating (corn (Zea mays); Rate 125 g/ha): 0 | Plant response rating, Corn (corn (Zea mays); Rate 250 g/ha, Postemergence): 1 | Plant response rating, Corn (corn (Zea mays); [16]): 0 | Plant response rating, Crabgrass ([5]; Rate 62 g/ha, Postemergence): 2 | Crabgrass plant response rating ([5]; Rate 62 g/ha): 0 | Plant response rating, Crabgrass ([5]; Rate 125 g/ha, Postemergence): 2 | Crabgrass plant response rating ([5]; Rate 125 g/ha): 1 | Plant response rating, Crabgrass ([5]; Rate 250 g/ha, Postemergence): 2 | Plant response rating, Crabgrass [5, 16]: 1 | Plant response rating, Giant foxtail ([6]; Rate 62 g/ha, Postemergence): 1 | Giant foxtail plant response rating ([6]; Rate 62 g/ha, Preemergence): 0 | Giant foxtail plant response rating ([6]; Rate 125 g/ha, Postemergence): 1 | Giant foxtail plant response rating ([6]; Rate 125 g/ha, Preemergence): 0 | Plant response rating, Giant foxtail ([6]; Rate 250 g/ha, Postemergence): 1 | Plant response rating, Giant foxtail [6, 16]: 1 | Plant response rating, Morningglory ([7]; Rate 62 g/ha, Postemergence): 1 | Morningglory plant response rating ([7]; Rate 62 g/ha, Preemergence): 0 | Morningglory plant response rating ([7]; Rate 125 g/ha, Postemergence): 1 | Morningglory plant response rating ([7]; Rate 125 g/ha, Preemergence): 0 | Plant response rating, Morningglory ([7]; Rate 250 g/ha, Postemergence): 1 | Plant response rating, Morningglory [7, 16]: 0 | Plant response rating, Redroot pigweed ([8]; Rate 62 g/ha, Postemergence): 3 | Redroot pigweed plant response rating ([8]; Rate 62 g/ha, Preemergence): 0 | Redroot pigweed plant response rating ([8]; Rate 125 g/ha, Postemergence): 3 | Redroot pigweed plant response rating ([8]; Rate 125 g/ha, Preemergence): 0 | Plant response rating, Redroot pigweed ([8]; Rate 250 g/ha, Postemergence): 5 | Plant response rating, Redroot pigweed [8, 16]: 5 | Plant response rating, Nutsedge ([9]; Rate 62 g/ha, Postemergence): 0 | Nutsedge plant response rating ([9]; Rate 62 g/ha, Preemergence): 0 | Nutsedge plant response rating ([9]; Rate 125 g/ha, Postemergence): 0 | Nutsedge plant response rating ([9]; Rate 125 g/ha, Preemergence): 0 | Plant response rating, Nutsedge ([9]; Rate 250 g/ha, Postemergence): 0 | Plant response rating, Nutsedge [9, 16]: 0 | Plant response rating, Rape (rape (Brassica napus); Rate 62 g/ha, Postemergence): 6 | Rape plant response rating (rape (Brassica napus); Rate 62 g/ha, Preemergence): 0 | Rape plant response rating (rape (Brassica napus); Rate 125 g/ha, Postemergence): 6 | Rape plant response rating (rape (Brassica napus); Rate 125 g/ha, Preemergence): 0 | Plant response rating, Rape (rape (Brassica napus); Rate 250 g/ha, Postemergence): 9 | Plant response rating, Rape (rape (Brassica napus); [16]): 0 | Plant response rating, Soybean (soybean (Glycine max); Rate 62 g/ha, Postemergence): 1 | Soybean plant response rating (soybean (Glycine max); Rate 62 g/ha, Preemergence): 0 | Soybean plant response rating (soybean (Glycine max); Rate 125 g/ha, Postemergence): 2 | Plant response rating, Soybean (soybean (Glycine max); Rate 125 g/ha, Preemergence): 0 | Plant response rating, Soybean (soybean (Glycine max); Rate 250 g/ha, Postemergence): 2 | Plant response rating, Soybean (soybean (Glycine max); [16]): 0 | Plant response rating, Sugarbeets ([10]; Rate 62 g/ha, Postemergence): 9 | Sugarbeets plant response rating ([10]; Rate 62 g/ha, Preemergence): 0 | Sugarbeets plant response rating ([10]; Rate 125 g/ha, Postemergence): 10 | Plant response rating, Sugarbeets ([10]; Rate 125 g/ha, Preemergence): 0 | Plant response rating, Sugarbeets ([10]; Rate 250 g/ha, Postemergence): 10 | Plant response rating, Sugarbeets [10, 16]: 1 | Plant response rating, Velvetleaf ([11]; Rate 62 g/ha, Postemergence): 1 | Velvetleaf plant response rating ([11]; Rate 62 g/ha, Preemergence): 0 | Velvetleaf plant response rating ([11]; Rate 125 g/ha, Postemergence): 1 | Plant response rating, Velvetleaf ([11]; Rate 125 g/ha, Preemergence): 0 | Plant response rating, Velvetleaf ([11]; Rate 250 g/ha, Postemergence): 1 | Plant response rating, Velvetleaf [11, 16]: 1 | Wheat plant response rating ([12]; Rate 62 g/ha, Postemergence): 0 | Wheat plant response rating ([12]; Rate 62 g/ha, Preemergence): 0 | Wheat plant response rating ([12]; Rate 125 g/ha, Postemergence): 0 | Plant response rating, Wheat ([12]; Rate 125 g/ha, Preemergence): 0 | Plant response rating, Wheat ([12]; Rate 250 g/ha, Postemergence): 1 | Plant response rating, Wheat [12, 16]: 0 | Wild oats plant response rating (wild oat (Avena fatua); Rate 62 g/ha, Postemergence): 1 | Wild oats plant response rating (wild oat (Avena fatua); Rate 62 g/ha, Preemergence): 0 | Wild oats plant response rating (wild oat (Avena fatua); Rate 125 g/ha, Postemergence): 1 | Plant response rating, Wild oats (wild oat (Avena fatua); Rate 125 g/ha, Preemergence): 0 | Plant response rating, Wild oats (wild oat (Avena fatua); Rate 250 g/ha, Postemergence): 2 | Plant response rating, Wild oats (wild oat (Avena fatua); [16]): 1 | Plant response rating, Barnyardgrass [13, 17]: 0 | Plant response rating, Barnyardgrass [13, 18]: 2 | Plant response rating, Barnyardgrass [13, 19]: 2 | Plant response rating, Ducksalad [14, 17]: 0 | Plant response rating, Ducksalad [14, 18]: 0 | Plant response rating, Ducksalad [14, 19]: 1 | Plant response rating, Rice (rice (Oryza sativa); [17]): 0 | Rice plant response rating (rice (Oryza sativa); [20]): 1 | Plant response rating, Rice (rice (Oryza sativa); [19]): 1 | Plant response rating, S. Flatsedge [15, 17]: 1 | S. Flatsedge plant response rating [15, 20]: 2 | Plant response rating, S. Flatsedge [15, 19]: 2
